From patent US6914045B2, “Glycopeptide antibiotics” (Wyeth Holdings Corporation, priority 2001, dated 2005)
In brackets after ≈: the same amount, converted by molar mass.

Tests used:
Test in all cases: in vitro antibacterial evaluation, MIC by broth dilution
Format in all cases: cell-based
Enterococcus sp. = tested on: Enterococcus sp.
Description: (§1) Methods for in vitro Antibacterial Evaluation (Table 1)
(§2) The minimum inhibitory concentration (MIC), the lowest concentration of the antibiotic which inhibits growth of the test organism, is determined by the broth dilution method using Muller-Hinton II […] (Baltimore Biological Laboratories) following the recommendations of the National Committee for Clinical Laboratory Standards [Methods for dilution antimicrobial susceptibility tests for bacteria that grow aerobically, approved standard M7-A2, National Committee for Clinical Laboratory Standards, Villanova, Pa.].
(§3) An inoculum level of 5×10^5 CFU/mL, and a range of antibiotic concentrations (64-0.06 μg/mL) is used. […] The test organisms include a spectrum of Gram-positive bacteria comprised of Staphylococcus sp., Streptococcus sp. and Enterococcus sp. These organisms include recent clinical isolates that are resistant to methicillin, penicillin and/or vancomycin.

Staphylococcus sp. = conditions: broth dilution, 18 hours at 35° C.; for MIC Staphylococcus aureus (ATCC 29213): strain ATCC 29213; for MIC Staphylococcus aureus (GC 1131): strain GC 1131; for MIC Staphylococcus aureus (GC 4541): strain GC 4541; for MIC Staphylococcus aureus (GC 4542): strain GC 4542; for MIC Staphylococcus aureus (GC 4544): strain GC 4544; for MIC Staphylococcus aureus (GC 4545): strain GC 4545
Description: as §1, §2, §3

Streptococcus sp. = tested on: Streptococcus sp.
Description: as §1, §2, §3

Escherichia coli = conditions: 18 hours at 35° C.
In short: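 Broth dilution MIC per NCCLS M7-A2 in Mueller-Hinton II medium, inoculum 5×10^5 CFU/mL, antibiotic range 64-0.06 μg/mL. MIC taken as lowest concentration inhibiting growth.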

[1] = broth dilution, 18 hours at 35° C.

CC(c1ccccc1)C1NC(=O)CNC(=O)C(CO)NC(=O)C(C(O)C2CNC(=N)N2C2OC(CO)C(O)C(O)C2O)NC(=O)C(C(O)C2CNC(=N)N2)NC(=O)C(Cc2ccc3oc(SCc4ccccc4)nc3c2)NC1=O (stereo not drawn) [Example 45, Cyclo[3-[2-(benzylthio)-1,3-benzoxazol-5-yl]alanyl-3-(2-iminoimidazolidin-4-yl)seryl-3-(3-hexopyranosyl-2-iminoimidazolidin-4-yl)serylserylglycyl-β-methylphenylalanyl]]
MIC Enterococcus faecalis (ATCC 29212) (Enterococcus sp.; strain ATCC 29212; broth dilution, 18 hours at 35° C.): 32 mg/L (≈ 28.6 µM) | MIC Enterococcus faecalis (GC 2242) (Enterococcus sp.; strain GC 2242; broth dilution, 18 hours at 35° C.): 16 mg/L (≈ 14.3 µM) | MIC Enterococcus faecium (GC 2243) (Enterococcus sp.; strain GC 2243; broth dilution, 18 hours at 35° C.): 16 mg/L (≈ 14.3 µM) | MIC Enterococcus faecalis (GC 2691) (Enterococcus sp.; strain GC 2691; broth dilution, 18 hours at 35° C.): 32 mg/L (≈ 28.6 µM) | MIC Enterococcus faecalis (GC 3059) (Enterococcus sp.; strain GC 3059; broth dilution, 18 hours at 35° C.): 32 mg/L (≈ 28.6 µM) | MIC Enterococcus faecalis (GC 4552) (Enterococcus sp.; strain GC 4552; broth dilution, 18 hours at 35° C.): 16 mg/L (≈ 14.3 µM) | MIC Enterococcus faecalis (GC 4553) (Enterococcus sp.; strain GC 4553; broth dilution, 18 hours at 35° C.): 16 mg/L (≈ 14.3 µM) | MIC Enterococcus faecalis (GC 4554) (Enterococcus sp.; strain GC 4554; broth dilution, 18 hours at 35° C.): 16 mg/L (≈ 14.3 µM) | MIC Enterococcus faecium (GC 4556) (Enterococcus sp.; strain GC 4556; broth dilution, 18 hours at 35° C.): 32 mg/L (≈ 28.6 µM) | MIC Enterococcus faecium (GC 4557) (Enterococcus sp.; strain GC 4557; broth dilution, 18 hours at 35° C.): 4 mg/L (≈ 3.58 µM) | MIC Enterococcus avium (GC 4558) (Enterococcus sp.; strain GC 4558; broth dilution, 18 hours at 35° C.): 8 mg/L (≈ 7.15 µM) | MIC Enterococcus faecalis (GC 6189) (Enterococcus sp.; strain GC 6189; broth dilution, 18 hours at 35° C.): 16 mg/L (≈ 14.3 µM) | MIC Staphylococcus aureus (ATCC 29213) (Staphylococcus sp.): 8 mg/L (≈ 7.15 µM) | MIC Staphylococcus aureus (GC 1131) (Staphylococcus sp.): 8 mg/L (≈ 7.15 µM) | MIC Staphylococcus aureus (GC 3051) (Staphylococcus sp.; strain GC 3051): 8 mg/L (≈ 7.15 µM) | MIC Staphylococcus aureus (GC 3053) (Staphylococcus sp.; strain GC 3053): 8 mg/L (≈ 7.15 µM) | MIC Staphylococcus aureus (GC 4541) (Staphylococcus sp.): 16 mg/L (≈ 14.3 µM) | MIC Staphylococcus aureus (GC 4542) (Staphylococcus sp.): 8 mg/L (≈ 7.15 µM) | MIC Staphylococcus aureus-SMITH (GC 4543) (Staphylococcus sp.; strain GC 4543): 8 mg/L (≈ 7.15 µM) | MIC Staphylococcus aureus (GC 4544) (Staphylococcus sp.): 8 mg/L (≈ 7.15 µM) | MIC Staphylococcus aureus (GC 4545) (Staphylococcus sp.): 8 mg/L (≈ 7.15 µM) | MIC Staphylococcus haemolyticus (GC 4546) (Staphylococcus sp.; strain GC 4546): 4 mg/L (≈ 3.58 µM) | MIC Coagulase Negative Staphylococcus (GC 4547) (Staphylococcus sp.; strain GC 4547): 4 mg/L (≈ 3.58 µM) | MIC Coagulase Negative Staphylococcus (GC 4548) (Staphylococcus sp.; strain GC 4548): 8 mg/L (≈ 7.15 µM) | MIC Coagulase Negative Staphylococcus (GC 4549) (Staphylococcus sp.; strain GC 4549): 4 mg/L (≈ 3.58 µM) | MIC Coagulase Negative Staphylococcus (GC 4551) (Staphylococcus sp.; strain GC 4551): 8 mg/L (≈ 7.15 µM) | MIC Coagulase Negative Staphylococcus (GC 6257) (Staphylococcus sp.; strain GC 6257): 4 mg/L (≈ 3.58 µM) | MIC Streptococcus pneumoniae (ATCC 6301) (Streptococcus sp.; strain ATCC 6301; broth dilution, 18 hours at 35° C.): 16 mg/L (≈ 14.3 µM) | MIC Streptococcus pneumoniae (GC 1894) (Streptococcus sp.; strain GC 1894; broth dilution, 18 hours at 35° C.): 16 mg/L (≈ 14.3 µM) | MIC Streptococcus pyogenes (GC 4563) (Streptococcus sp.; strain GC 4563; broth dilution, 18 hours at 35° C.): 4 mg/L (≈ 3.58 µM) | MIC Streptococcus agalactiae (GC 4564) (Streptococcus sp.; strain GC 4564; broth dilution, 18 hours at 35° C.): 16 mg/L (≈ 14.3 µM) | MIC Streptococcus pneumoniae (GC 4565) (Streptococcus sp.; strain GC 4565; broth dilution, 18 hours at 35° C.): 32 mg/L (≈ 28.6 µM) | MIC Escherichia coli (ATCC 25922) (Escherichia coli; strain ATCC 25922, broth dilution): 16 mg/L (≈ 14.3 µM) | MIC Escherichia coli (GC 4559) (Escherichia coli; strain GC 4559, broth dilution): 16 mg/L (≈ 14.3 µM) | MIC Escherichia coli (GC 4560) (Escherichia coli; strain GC 4560, broth dilution): 4 mg/L (≈ 3.58 µM)

CC(c1ccccc1)C1NC(=O)CNC(=O)C(CO)NC(=O)C(C(O)C2CNC(=N)N2C2OC(COC(=O)C(c3ccccc3)c3ccccc3)C(O)C(O)C2O)NC(=O)C(C(O)C2CNC(=N)N2)NC(=O)C(Cc2ccc(OC3OC(CO)C(OC4OC(CO)C(O)C(O)C4O)C(O)C3O)cc2)NC1=O (stereo not drawn) [Example 96, Cyclo[glycyl-β-methylphenylalanyl-O-(4-O-hexopyranosylhexoipyranosyl)tyrosyl-3-(2-iminoimidazolidin-4-yl)seryl-3-[3-[6-O-(diphenylacetyl)hexopyranosyl]-2-iminoimidazolidin-4-yl]-serylseryl]]
MIC Enterococcus avium (GC 4558) (Enterococcus sp.; Enterococcus avium (GC 4558); broth dilution, 18 hours at 35° C.): >128 mg/L | MIC Enterococcus faecalis (ATCC 29212) (Enterococcus sp.; Enterococcus faecalis (ATCC 29212); broth dilution, 18 hours at 35° C.): >128 mg/L | MIC Enterococcus faecalis (GC 4552) (Enterococcus sp.; Enterococcus faecalis (GC 4552); broth dilution, 18 hours at 35° C.): >128 mg/L | MIC Enterococcus faecalis (GC 4553) (Enterococcus sp.; Enterococcus faecalis (GC 4553); broth dilution, 18 hours at 35° C.): >128 mg/L | MIC Enterococcus faecalis (GC 4554) (Enterococcus sp.; Enterococcus faecalis (GC 4554); broth dilution, 18 hours at 35° C.): >128 mg/L | MIC Enterococcus faecium (GC 2243) (Enterococcus sp.; Enterococcus faecium (GC 2243); broth dilution, 18 hours at 35° C.): >128 mg/L | MIC Enterococcus faecium (GC 4556) (Enterococcus sp.; Enterococcus faecium (GC 4556); broth dilution, 18 hours at 35° C.): >128 mg/L | MIC Enterococcus faecium (GC 4557) (Enterococcus sp.; Enterococcus faecium (GC 4557); broth dilution, 18 hours at 35° C.): 128 mg/L (≈ 85.9 µM) | MIC Enterococcus avium (GC 4558) (Enterococcus sp.; [1]): >128 mg/L | MIC Enterococcus faecalis (ATCC 29212) (Enterococcus sp.; [1]): >128 mg/L | MIC Enterococcus faecalis (GC 2242) (Enterococcus sp.; [1]): >128 mg/L | MIC Enterococcus faecalis (GC 4552) (Enterococcus sp.; [1]): >128 mg/L | MIC Enterococcus faecalis (GC 4553) (Enterococcus sp.; [1]): >128 mg/L | MIC Enterococcus faecalis (GC 4554) (Enterococcus sp.; [1]): >128 mg/L | MIC Enterococcus faecium (GC 2243) (Enterococcus sp.; [1]): >128 mg/L | MIC Enterococcus faecium (GC 4556) (Enterococcus sp.; [1]): >128 mg/L | MIC Enterococcus faecium (GC 4557) (Enterococcus sp.; [1]): 128 mg/L (≈ 85.9 µM) | MIC Enterococcus faecalis (GC 2242) (Enterococcus sp.; broth dilution, 18 hours at 35° C.; strain GC 2242): >128 mg/L | MIC Coagulase Negative Staphylococcus (GC 4547) (Staphylococcus sp.): >128 mg/L | MIC Coagulase Negative Staphylococcus (GC 4548) (Staphylococcus sp.): >128 mg/L | MIC Coagulase Negative Staphylococcus (GC 4549) (Staphylococcus sp.): >128 mg/L | MIC Coagulase Negative Staphylococcus (GC 4551) (Staphylococcus sp.): >128 mg/L | MIC Coagulase Negative Staphylococcus (ID-3941) (Staphylococcus sp.): 128 mg/L (≈ 85.9 µM) | MIC Staphylococcus aureus-SMITH (GC 4543) (Staphylococcus sp.): >128 mg/L | MIC Staphylococcus haemolyticus (GC 4546) (Staphylococcus sp.): >128 mg/L | MIC Staphylococcus aureus (ATCC 29213) (Staphylococcus sp.): >128 mg/L | MIC Staphylococcus aureus (GC 1131) (Staphylococcus sp.): >128 mg/L | MIC Staphylococcus aureus (GC 4541) (Staphylococcus sp.): >128 mg/L | MIC Staphylococcus aureus (GC 4542) (Staphylococcus sp.): >128 mg/L | MIC Staphylococcus aureus-SMITH (GC 4543) (Staphylococcus sp.; strain GC 4543): >128 mg/L | MIC Staphylococcus aureus (GC 4544) (Staphylococcus sp.): >128 mg/L | MIC Staphylococcus aureus (GC 4545) (Staphylococcus sp.): >128 mg/L | MIC Staphylococcus haemolyticus (GC 4546) (Staphylococcus sp.; strain GC 4546): >128 mg/L | MIC Coagulase Negative Staphylococcus (GC 4547) (Staphylococcus sp.; strain GC 4547): >128 mg/L | MIC Coagulase Negative Staphylococcus (GC 4548) (Staphylococcus sp.; strain GC 4548): >128 mg/L | MIC Coagulase Negative Staphylococcus (GC 4549) (Staphylococcus sp.; strain GC 4549): >128 mg/L | MIC Coagulase Negative Staphylococcus (GC 4551) (Staphylococcus sp.; strain GC 4551): >128 mg/L | MIC Coagulase Negative Staphylococcus (ID-3941) (Staphylococcus sp.; strain ID-3941): 128 mg/L (≈ 85.9 µM) | MIC Streptococcus agalactiae (GC 4564) (Streptococcus sp.; [1]): >128 mg/L | MIC Streptococcus pneumoniae (GC 4565) (Streptococcus sp.; [1]): >128 mg/L | MIC Streptococcus pyogenes (ID-3187) (Streptococcus sp.; [1]): >128 mg/L | MIC Streptococcus agalactiae (GC 4564) (Streptococcus sp.; broth dilution, 18 hours at 35° C.; strain GC 4564): >128 mg/L | MIC Streptococcus pneumoniae (GC 4565) (Streptococcus sp.; broth dilution, 18 hours at 35° C.; strain GC 4565): >128 mg/L | MIC Streptococcus pyogenes (ID-3187) (Streptococcus sp.; broth dilution, 18 hours at 35° C.; strain ID-3187): >128 mg/L | MIC Escherichia coli (ATCC 25922) (Escherichia coli): >128 mg/L
